ChEMBL document CHEMBL5465560, “Selectivity Literature for EUbOPEN Chemogenomic Library” (2024)

Experiments:
[1] = target: Serine/threonine-protein kinase MARK1 (Homo sapiens) (UniProt Q9P0L2); conditions: at 10 µM
[2] = target: Serine/threonine-protein kinase tousled-like 2 (Homo sapiens) (UniProt Q86UE8); experiment: Selectivity interaction (KinomeScan (DiscoverX)) EUB0000229b TLK2; conditions: at 10 µM
[3] = target: Receptor-type tyrosine-protein kinase FLT3 (Homo sapiens) (UniProt P36888); experiment: Selectivity interaction (KinaseProfiler screening (Millipore)) EUB0000601a FLT3; conditions: at 3 µM
Receptor-type tyrosine-protein kinase FLT3 (Homo sapiens), sequence (P36888 whole entry): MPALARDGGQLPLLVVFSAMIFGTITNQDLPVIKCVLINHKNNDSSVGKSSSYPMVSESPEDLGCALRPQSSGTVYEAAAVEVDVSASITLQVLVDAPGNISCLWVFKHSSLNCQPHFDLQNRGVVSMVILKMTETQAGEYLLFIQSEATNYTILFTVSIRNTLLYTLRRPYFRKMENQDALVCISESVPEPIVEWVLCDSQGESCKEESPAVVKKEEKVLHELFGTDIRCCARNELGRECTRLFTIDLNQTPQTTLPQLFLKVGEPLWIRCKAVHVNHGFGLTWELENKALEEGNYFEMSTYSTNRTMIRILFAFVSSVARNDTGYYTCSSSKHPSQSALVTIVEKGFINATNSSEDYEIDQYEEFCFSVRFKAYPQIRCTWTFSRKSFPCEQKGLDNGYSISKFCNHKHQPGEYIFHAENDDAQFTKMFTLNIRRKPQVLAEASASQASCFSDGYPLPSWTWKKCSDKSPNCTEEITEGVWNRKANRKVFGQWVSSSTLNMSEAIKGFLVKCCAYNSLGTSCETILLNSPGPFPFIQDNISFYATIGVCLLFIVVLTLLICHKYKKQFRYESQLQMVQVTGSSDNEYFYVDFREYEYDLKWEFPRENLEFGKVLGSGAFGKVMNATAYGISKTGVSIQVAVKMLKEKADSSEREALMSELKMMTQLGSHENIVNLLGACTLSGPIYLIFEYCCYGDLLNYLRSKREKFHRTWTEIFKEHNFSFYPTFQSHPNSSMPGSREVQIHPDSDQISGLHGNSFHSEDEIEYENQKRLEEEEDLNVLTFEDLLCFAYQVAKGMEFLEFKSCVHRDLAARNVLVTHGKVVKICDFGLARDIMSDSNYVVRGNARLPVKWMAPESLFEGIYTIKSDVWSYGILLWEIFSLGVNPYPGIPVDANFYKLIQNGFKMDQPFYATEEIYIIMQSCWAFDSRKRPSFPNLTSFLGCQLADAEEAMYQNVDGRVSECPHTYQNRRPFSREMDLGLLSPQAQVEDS

[4] = target: Aurora kinase B (Homo sapiens, UniProt Q96GD4); experiment: Selectivity interaction (Kinase panel (Z-LYTE Assay)) EUB0001632a AURKB; conditions: at 10 µM
Aurora kinase B, sequence (Q96GD4 whole entry): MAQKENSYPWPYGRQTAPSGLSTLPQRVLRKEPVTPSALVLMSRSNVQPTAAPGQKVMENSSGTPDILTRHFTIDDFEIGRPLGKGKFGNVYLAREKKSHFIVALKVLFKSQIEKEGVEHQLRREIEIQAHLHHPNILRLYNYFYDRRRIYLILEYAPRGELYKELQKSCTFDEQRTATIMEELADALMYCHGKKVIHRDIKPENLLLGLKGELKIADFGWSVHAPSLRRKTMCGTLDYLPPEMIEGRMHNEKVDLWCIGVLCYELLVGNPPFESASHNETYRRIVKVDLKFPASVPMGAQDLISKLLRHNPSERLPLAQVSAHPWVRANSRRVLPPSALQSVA

[5] = target: Receptor tyrosine-protein kinase erbB-2 (Homo sapiens, UniProt P04626); experiment: Selectivity interaction (Kinase panel (Invitrogen)) EUB0000639a ERBB2; conditions: at 200 nM
[6] = target: MAO-B (MAOB) (Homo sapiens, UniProt P27338); experiment: Selectivity interaction (Panel of kinases, GPCRs, ion channels and transporters (enzymatic assay)) EUB0000223bCl MAOB
[7] = target: Serine/threonine-protein kinase 32C (Homo sapiens) (UniProt Q86UX6); experiment: Selectivity interaction (KinomeScan (DiscoverX)) EUB0000607a STK32C; conditions: at 10 µM
[8] = target: T1, Serine/threonine-protein kinase 17A (Homo sapiens) (UniProt Q9UEE5); experiment: Selectivity interaction (KinomeScan (DiscoverX)) EUB0000618a STK17A; conditions: at 10 µM
T1 sequence (whole entry): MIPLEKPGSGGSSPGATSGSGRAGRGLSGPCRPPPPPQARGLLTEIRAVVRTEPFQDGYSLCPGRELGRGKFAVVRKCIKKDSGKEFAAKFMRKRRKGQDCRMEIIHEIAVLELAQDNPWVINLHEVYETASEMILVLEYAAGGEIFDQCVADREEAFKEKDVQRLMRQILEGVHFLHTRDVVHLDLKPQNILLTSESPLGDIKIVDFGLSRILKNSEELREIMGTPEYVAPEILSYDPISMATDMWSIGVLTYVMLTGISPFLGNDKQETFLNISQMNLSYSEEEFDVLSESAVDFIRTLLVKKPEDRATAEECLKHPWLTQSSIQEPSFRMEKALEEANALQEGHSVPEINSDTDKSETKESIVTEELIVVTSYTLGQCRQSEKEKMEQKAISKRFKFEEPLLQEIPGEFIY

[9] = target: T2, Activin receptor type-1B (Homo sapiens) (UniProt P36896); experiment: Selectivity interaction (Ambit KINOMEscan and KiNATiv profiling in Jurkat cells) EUB0000090b ACVR1B; assay type: cell-based; conditions: at 1 µM
T2 sequence (whole entry): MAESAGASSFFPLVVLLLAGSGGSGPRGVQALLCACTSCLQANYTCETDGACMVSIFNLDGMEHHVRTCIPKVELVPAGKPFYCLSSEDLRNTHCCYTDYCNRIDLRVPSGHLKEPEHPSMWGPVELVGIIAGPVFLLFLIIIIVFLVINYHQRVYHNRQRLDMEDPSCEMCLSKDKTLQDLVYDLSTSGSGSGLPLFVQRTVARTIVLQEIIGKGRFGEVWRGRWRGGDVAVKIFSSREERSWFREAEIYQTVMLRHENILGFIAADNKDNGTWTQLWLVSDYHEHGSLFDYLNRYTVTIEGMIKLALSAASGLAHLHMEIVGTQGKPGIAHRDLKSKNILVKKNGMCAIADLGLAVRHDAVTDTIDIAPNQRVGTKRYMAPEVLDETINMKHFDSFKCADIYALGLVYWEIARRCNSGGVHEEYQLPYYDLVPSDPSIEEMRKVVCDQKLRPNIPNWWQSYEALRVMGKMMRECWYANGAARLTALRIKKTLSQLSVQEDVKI

[10] = target: Serine/threonine-protein kinase 16 (Homo sapiens, UniProt O75716); experiment: Selectivity interaction (Ambit KINOMEscan and KiNATiv profiling in Jurkat cells) EUB0000090b STK16; assay type: cell-based; conditions: at 1 µM
Serine/threonine-protein kinase 16, sequence (O75716 whole entry): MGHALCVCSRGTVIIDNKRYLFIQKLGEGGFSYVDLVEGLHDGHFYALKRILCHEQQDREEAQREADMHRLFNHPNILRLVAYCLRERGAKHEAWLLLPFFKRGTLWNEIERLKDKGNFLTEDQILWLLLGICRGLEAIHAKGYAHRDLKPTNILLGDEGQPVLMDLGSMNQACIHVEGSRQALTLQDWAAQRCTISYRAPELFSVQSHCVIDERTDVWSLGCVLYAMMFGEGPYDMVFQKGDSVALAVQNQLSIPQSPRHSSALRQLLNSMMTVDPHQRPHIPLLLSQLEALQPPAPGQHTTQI

[11] = target: Tyrosine-protein kinase Lyn (Homo sapiens, UniProt P07948); experiment: Selectivity interaction (KinomeScan (DiscoverX)) EUB0001619a LYN; conditions: at 1 µM
Tyrosine-protein kinase Lyn, sequence (P07948 2-512 limits assumed): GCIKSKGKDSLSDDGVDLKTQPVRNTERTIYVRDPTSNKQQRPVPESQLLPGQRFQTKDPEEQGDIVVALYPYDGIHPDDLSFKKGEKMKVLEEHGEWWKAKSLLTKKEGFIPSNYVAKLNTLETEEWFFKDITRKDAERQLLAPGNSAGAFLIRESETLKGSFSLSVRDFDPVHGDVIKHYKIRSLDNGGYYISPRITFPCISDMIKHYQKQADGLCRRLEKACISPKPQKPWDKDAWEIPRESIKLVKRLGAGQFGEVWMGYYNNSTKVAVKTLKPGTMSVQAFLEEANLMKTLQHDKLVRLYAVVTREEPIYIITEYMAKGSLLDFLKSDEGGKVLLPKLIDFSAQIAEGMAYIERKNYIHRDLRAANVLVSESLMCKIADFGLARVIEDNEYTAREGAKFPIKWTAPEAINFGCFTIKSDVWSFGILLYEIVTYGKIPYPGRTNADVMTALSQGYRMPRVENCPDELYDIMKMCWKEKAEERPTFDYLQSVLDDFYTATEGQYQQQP

[12] = target: Activated CDC42 kinase 1 (Homo sapiens, UniProt Q07912); experiment: Selectivity interaction (ActivX KiNativ screen (ex vivo kinase selectivity in human PBMCs)) EUB0001619a TNK2; assay type: cell-based; conditions: PBMC, at 1 µM
Activated CDC42 kinase 1, sequence (Q07912 whole entry, looked up): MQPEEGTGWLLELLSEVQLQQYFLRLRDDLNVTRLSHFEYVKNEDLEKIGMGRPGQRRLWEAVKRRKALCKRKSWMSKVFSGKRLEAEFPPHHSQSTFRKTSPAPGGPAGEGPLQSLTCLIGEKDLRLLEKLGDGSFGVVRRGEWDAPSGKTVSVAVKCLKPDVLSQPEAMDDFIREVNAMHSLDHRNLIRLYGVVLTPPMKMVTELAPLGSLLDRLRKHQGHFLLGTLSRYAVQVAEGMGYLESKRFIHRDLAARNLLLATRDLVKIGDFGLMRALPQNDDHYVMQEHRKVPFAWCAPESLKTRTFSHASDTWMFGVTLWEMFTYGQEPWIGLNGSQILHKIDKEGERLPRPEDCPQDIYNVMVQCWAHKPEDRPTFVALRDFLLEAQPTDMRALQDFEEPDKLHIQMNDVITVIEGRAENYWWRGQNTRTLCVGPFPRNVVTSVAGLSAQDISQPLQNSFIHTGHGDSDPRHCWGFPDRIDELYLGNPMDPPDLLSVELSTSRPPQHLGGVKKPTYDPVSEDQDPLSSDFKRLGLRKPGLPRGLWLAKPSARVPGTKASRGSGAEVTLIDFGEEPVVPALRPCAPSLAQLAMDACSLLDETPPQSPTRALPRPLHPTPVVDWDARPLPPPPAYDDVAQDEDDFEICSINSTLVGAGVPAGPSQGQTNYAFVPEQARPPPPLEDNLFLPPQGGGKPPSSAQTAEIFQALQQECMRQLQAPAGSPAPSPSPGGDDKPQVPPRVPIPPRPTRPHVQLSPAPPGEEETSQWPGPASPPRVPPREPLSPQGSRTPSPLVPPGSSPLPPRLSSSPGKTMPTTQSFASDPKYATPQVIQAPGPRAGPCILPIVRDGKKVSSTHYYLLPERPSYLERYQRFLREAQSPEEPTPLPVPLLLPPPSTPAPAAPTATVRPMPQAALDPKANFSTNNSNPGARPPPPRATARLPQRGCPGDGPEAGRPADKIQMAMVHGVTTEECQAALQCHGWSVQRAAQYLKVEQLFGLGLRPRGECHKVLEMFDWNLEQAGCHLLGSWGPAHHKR

[13] = target: T3, Phosphatidylinositol 5-phosphate 4-kinase type-2 beta (Homo sapiens) (UniProt P78356); experiment: Selectivity interaction (ActivX KiNativ screen (ex vivo kinase selectivity in human PBMCs)) EUB0001619a PIP4K2B; assay type: cell-based; conditions: PBMC, at 1 µM
T3 sequence (whole entry): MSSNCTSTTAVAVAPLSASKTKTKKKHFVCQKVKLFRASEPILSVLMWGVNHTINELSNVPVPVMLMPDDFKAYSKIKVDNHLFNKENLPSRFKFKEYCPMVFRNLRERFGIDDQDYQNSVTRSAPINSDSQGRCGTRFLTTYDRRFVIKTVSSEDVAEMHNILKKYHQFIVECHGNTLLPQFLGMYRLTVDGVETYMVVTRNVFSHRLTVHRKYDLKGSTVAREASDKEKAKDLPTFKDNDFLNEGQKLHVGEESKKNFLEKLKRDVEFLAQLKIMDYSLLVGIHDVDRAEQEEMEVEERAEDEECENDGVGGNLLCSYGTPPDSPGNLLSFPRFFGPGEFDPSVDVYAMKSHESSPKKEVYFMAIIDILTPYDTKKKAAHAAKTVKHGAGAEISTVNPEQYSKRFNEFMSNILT

Serine/threonine-protein kinase MARK1 (Homo sapiens), sequence (Q9P0L2 whole entry, looked up): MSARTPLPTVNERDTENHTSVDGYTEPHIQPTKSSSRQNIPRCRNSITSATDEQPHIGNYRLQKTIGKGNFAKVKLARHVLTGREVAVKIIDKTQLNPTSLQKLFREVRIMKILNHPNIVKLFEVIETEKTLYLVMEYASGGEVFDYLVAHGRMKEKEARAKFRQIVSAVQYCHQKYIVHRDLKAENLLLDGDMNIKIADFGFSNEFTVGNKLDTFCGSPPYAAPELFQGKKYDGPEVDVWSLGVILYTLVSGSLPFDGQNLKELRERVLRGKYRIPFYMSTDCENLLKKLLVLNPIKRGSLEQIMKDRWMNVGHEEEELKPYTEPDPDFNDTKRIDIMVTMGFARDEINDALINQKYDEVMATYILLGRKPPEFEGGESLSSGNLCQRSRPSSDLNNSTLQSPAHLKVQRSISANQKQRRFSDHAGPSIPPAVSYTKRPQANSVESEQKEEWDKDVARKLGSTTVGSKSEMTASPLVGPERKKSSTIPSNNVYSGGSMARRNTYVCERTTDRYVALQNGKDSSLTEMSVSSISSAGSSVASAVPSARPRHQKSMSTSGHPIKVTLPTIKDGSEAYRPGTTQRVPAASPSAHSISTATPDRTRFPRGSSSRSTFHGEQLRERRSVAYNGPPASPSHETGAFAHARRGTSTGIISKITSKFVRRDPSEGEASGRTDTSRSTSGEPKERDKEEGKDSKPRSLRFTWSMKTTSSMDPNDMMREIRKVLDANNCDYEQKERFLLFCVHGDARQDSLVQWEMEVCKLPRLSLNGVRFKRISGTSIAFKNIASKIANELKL
Serine/threonine-protein kinase tousled-like 2 (Homo sapiens), sequence (Q86UE8 whole entry, looked up): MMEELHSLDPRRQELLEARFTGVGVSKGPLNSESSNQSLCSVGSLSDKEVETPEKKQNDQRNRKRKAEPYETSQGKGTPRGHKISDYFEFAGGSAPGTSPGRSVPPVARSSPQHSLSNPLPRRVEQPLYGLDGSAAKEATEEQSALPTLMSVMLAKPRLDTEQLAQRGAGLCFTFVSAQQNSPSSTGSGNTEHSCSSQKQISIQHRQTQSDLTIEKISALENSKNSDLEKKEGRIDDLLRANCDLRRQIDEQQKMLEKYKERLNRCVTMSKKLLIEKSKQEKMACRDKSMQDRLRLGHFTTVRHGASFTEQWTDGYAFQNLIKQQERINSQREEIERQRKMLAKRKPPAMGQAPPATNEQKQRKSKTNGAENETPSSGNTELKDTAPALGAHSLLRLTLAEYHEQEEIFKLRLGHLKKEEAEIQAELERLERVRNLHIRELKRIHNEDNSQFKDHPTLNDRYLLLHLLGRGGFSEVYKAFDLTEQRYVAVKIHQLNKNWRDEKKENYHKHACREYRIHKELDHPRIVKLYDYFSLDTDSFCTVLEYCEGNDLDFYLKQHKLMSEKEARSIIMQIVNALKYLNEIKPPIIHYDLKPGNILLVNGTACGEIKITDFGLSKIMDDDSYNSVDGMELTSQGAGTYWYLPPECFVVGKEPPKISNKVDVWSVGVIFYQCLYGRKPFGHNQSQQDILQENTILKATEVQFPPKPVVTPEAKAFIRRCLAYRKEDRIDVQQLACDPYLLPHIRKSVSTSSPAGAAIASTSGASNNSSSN

SMILES: CCN(CC)CCCCNc1ncc2cc(-c3cc(OC)cc(OC)c3)c(NC(=O)NC(C)(C)C)nc2n1
- % of control [1]: 100%

SMILES: COc1cc(N(C)c2ccnc3ccc(C(F)(F)F)cc23)cc(OC)c1OC
- % binding [2]: 92%

SMILES: CCc1cc(Nc2nccc(-c3c(-c4ccc(OC)c(C(=O)Nc5c(F)cccc5F)c4)nc4ccccn34)n2)c(OC)cc1N1CCC(N2CCN(S(C)(=O)=O)CC2)CC1
- % of inhibition [3]: 57%

SMILES: Cn1cc(-n2cnc3c(NCc4nc5cc(Cl)c(Cl)cc5[nH]4)nc(N4CCOCC4)nc32)cn1
- % of control [4]: 11.8%

SMILES: CC[C@@H]1[C@H](F)C(=O)N[C@@H]1COc1nccc2cc(C(N)=O)c(OC)cc12 [ZIMLOVISERTIB]
- % of inhibition [5]: -2.18%

SMILES: COc1cc(C(=O)N2CC[C@@H](O)[C@@H](N)C2)cc2nc(-c3cc4ccccc4n3CC3CC3)n(C)c12
- XC50 [6]: 15.8 µM

SMILES: CNC(=O)Nc1ccc(-c2nc(N3CC4CCC(C3)O4)c3cnn(C4CCC5(CC4)OCCO5)c3n2)cc1
- % of control [7]: 90%

SMILES: O[C@H]1CC[C@H](Nc2ncc3nc(Nc4c(F)cc(F)cc4F)n([C@H]4CCOC4)c3n2)CC1
- % of control [8]: 100%

SMILES: CN(C)C/C=C/C(=O)Nc1ccc(C(=O)N2CCCC(Nc3ncc(Cl)c(-c4c[nH]c5ccccc45)n3)C2)cc1 (stereo not drawn)
- % of control [9]: 96%
- % of control [10]: 6.2%

SMILES: N#Cc1cccc(-c2c[nH]c3ncnc(N4CCOCC4)c23)c1
- % of control [11]: 91%
- % of inhibition [12]: 8%
- % of inhibition [13]: 15%
